{"source": "paper PMC3954793", "about": "“SHP-2 Binds to Caveolin-1 and Regulates Src Activity via Competitive Inhibition of CSK in Response to H2O2 in Astrocytes” (PLoS ONE, 2014)", "key": {"[1]": {"test_system": "caveolin-1 (Tyr 14 phosphorylation)", "assay": "Immunoblot of p-caveolin-1 in human astroglioma cells and HUVECs", "format": "cell-based", "conditions": "for suppression of H2O2-induced caveolin-1 phosphorylation: pretreated 30 min, then 5 mM H2O2 for 10 min, percentage of H2O2-treated values, three independent experiments", "description": "HUVECs were utilized as a positive control. Data are representative of at least three experiments. […] Data are representative of three independent experiments."}, "[2]": {"biological_target": "T1, recombinant GST-SHP-2 (Homo sapiens, UniProt Q06124)", "T1 construct": "purchased Abnova (Taipei, Taiwan)", "T1 sequence (Q06124 1-593)": "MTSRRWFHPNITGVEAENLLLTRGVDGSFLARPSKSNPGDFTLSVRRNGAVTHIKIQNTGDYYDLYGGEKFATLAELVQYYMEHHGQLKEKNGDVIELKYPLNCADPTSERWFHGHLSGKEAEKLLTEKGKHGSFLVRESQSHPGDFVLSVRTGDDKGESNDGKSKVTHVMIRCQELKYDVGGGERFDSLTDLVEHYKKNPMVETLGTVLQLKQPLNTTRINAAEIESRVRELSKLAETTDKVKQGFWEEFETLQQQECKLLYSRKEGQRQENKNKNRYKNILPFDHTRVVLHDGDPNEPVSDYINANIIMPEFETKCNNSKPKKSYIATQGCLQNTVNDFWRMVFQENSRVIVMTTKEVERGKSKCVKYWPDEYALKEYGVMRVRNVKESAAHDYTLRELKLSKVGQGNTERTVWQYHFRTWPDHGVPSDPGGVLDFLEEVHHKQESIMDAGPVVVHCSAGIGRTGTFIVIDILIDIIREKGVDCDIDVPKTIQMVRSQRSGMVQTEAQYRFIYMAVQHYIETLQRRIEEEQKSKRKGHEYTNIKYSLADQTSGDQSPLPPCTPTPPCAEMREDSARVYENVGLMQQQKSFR", "assay": "PepSPOTs assay, rGST-SHP-2", "format": "binding", "conditions": "13-mer peptides of caveolin-1 (1–85) with phosphorylated Tyr 6, 14, 25, 42 on cellulose membrane; 1 µg rGST-SHP-2, overnight; repeated 3 times", "protocol": "(§1) Identification of binding sites for recombinant SHP-2 and CSK in the caveolin-1 protein was performed using PepSPOTs (JPT Peptide Technologies GmbH, Berlin, Germany). Synthetic peptide sequences of caveolin-1 (1–85 and 1–28) were used in this study. The peptide library contained either 13-mer peptides that overlapped by 5 residues or 13-mer peptides that overlapped by 8 residues. Each spot carried approximately 5 nmol of peptide covalently bound to the cellulose-betaalanine-membrane (N-terminus: acetyl). Two identical membranes were incubated overnight with either recombinant GST-SHP-2 (rGST-SHP-2) or GST-CSK (rGST-CSK) respectively, and immunoblotting was performed to detect rGST-SHP-2/caveolin-1 peptide and rGST-CSK/caveolin-1 peptide interactions.\n(§2) Figure 4 Both SHP-2 and CSK bind specifically to phosphorylated caveolin-1 at Tyr 14. (A) Schematic diagram of caveolin-1. (B) A peptide array assay was performed to identify the binding site for recombinant SHP-2 and CSK in the caveolin-1 protein. Schematic diagram of the synthetic peptide sequences of caveolin-1 (1–85) spotted on the membrane used for study is shown in the left panel. The peptide numbering starts with 1 in the left corner and the phosphorylated tyrosine residues are indicated in bold. […]"}, "[3]": {"test_system": "recombinant GST-CSK", "assay": "PepSPOTs assay, rGST-CSK", "format": "binding", "conditions": "13-mer peptides of caveolin-1 (1–85) with phosphorylated Tyr 6, 14, 25, 42 on cellulose membrane; 1 µg rGST-CSK, overnight; repeated 3 times", "protocol": "as §1, §2"}, "[4]": {"test_system": "caveolin-1/SHP-2 complex", "conditions": "CRT-MG cells; 5 mM H2O2, 10 min; PLA red dots; repeated 4 times"}, "[5]": {"test_system": "caveolin-1 (Tyr 14 phosphorylation)", "conditions": "rat primary astrocytes; 1 mM H2O2, 10 min; immunoblot"}, "[6]": {"test_system": "ERK phosphorylation", "assay": "Immunoblot of p-ERK", "format": "cell-based, human", "conditions": "CRT-MG cells; 5 mM H2O2, 10 min", "protocol": "(§3) Cells were plated and transfected with green fluorescence protein (GFP) siRNA (Samchully Pharm Co. Ltd., Seoul, Korea) as a control group and human CSK siRNA and human SHP-2 siRNA from Bioneer (Daejeon, Korea) using Lipofectamine RNAiMAX (Invitrogen, Carlsbad, CA, USA) according to the manufacturer’s instructions to achieve a final concentration of 300 nM.\n(§4) Figure 7 SHP-2 and CSK reciprocally regulate H2O2-induced Src activation. […] Tubulin was evaluated as a loading control. Bottom panel, Densitometric quantification of p-Src Y419 levels (empty bars) and p-Src Y530 levels (filled bars), normalized to the level of total Src. Results are expressed as percentage of H2O2-treated values in control siRNA presented as mean ± SD. (*p<0.05 vs. H2O2-treated cells transfected with control siRNA; #p<0.05 between SHP-2 siRNA-transfected cells and CSK siRNA-transfected cells; n = 3). (B) Inhibition of SHP-2 by PTPi IV attenuated the H2O2-induced activation of the Src signaling pathway. CRT-MG cells were treated with 5 mM H2O2 or not for 10 min in the presence of 5 or 10 µM PTPi IV for 30 min, and lysed in cold-RIPA buffer. Antibodies against p-SHP-2, SHP-2, p-Src, Src, p-FAK, FAK, p-ERK, ERK, and tubulin were used for immunoblotting. Bottom panel, Densitometric quantification of p-Src Y419 levels (empty bars) and p-Src Y530 levels (filled bars), normalized to the level of total Src. […] (p, phospho)."}, "[7]": {"test_system": "FAK phosphorylation", "assay": "Immunoblot of p-FAK", "format": "cell-based, human", "conditions": "CRT-MG cells; 5 mM H2O2, 10 min", "protocol": "as §4"}, "[8]": {"test_system": "caveolin-1/CSK complex", "assay": "Co-immunoprecipitation of caveolin-1 and CSK", "format": "cell-based, human", "conditions": "CRT-MG cells; H2O2 10 min; IP anti-caveolin-1", "protocol": "cDNA encoding full-length human caveolin-1 was obtained from Thermo Scientific (Waltham, MA, USA). The Y14A caveolin-1 mutant was generated using a QuickChange site-directed mutagenesis kit (Stratagene, Santa Clara, CA, USA) using PCR. pCMV-SPORT6-caveolin-1 cDNA (25 ng) was used as a template and added to dNTP mix, Pfu buffer, Pfu turbo DNA polymerase and 125 ng of each of the mutagenic primers: sense, 5′-[…]-3′ and antisense, 5′-[…]-3′. Samples were then incubated at 95°C for 1 min, then for 20 cycles of 95°C for 1 min, 65°C for 4 min, and 68°C for 12 min. The methylated parental DNA template in the PCR product was digested using the DpnI (10 U) restriction enzyme for 3 h at 37°C. […] After mutagenesis, 1 µg of caveolin-1 wild-type (WT) or Y14A mutant DNA was transfected into HEK 293T cells using VIVAMAGIC transfection reagent (VIVAGEN, Seongnam, Korea) containing 10% FBS according to the manufacturer’s instructions for 24 h before treatment with 5 mM H2O2 for 10 min; the cells were then analyzed by immunoblotting.\nas §3, with “nM. […]” for “nM.”"}, "[9]": {"test_system": "caveolin-1 (Tyr 14 phosphorylation)", "conditions": "bovine pulmonary artery endothelial cells and placenta artery endothelial cells; ref [28]–[30]; cited from earlier work"}}, "note": "Entries after “also recorded” stand apart in the source; their conditions may differ. Where two headings read alike, the source gives them in different places. Square brackets hold non-standard residues; d marks the D form. Ends that are not written are not given here. pY = N[C@@H](Cc1ccc(OP(=O)(O)O)cc1)C(=O)O"}
{"compound": "CC(=O)N[C@@H](CS)C(=O)O", "note": "[NAC, N-acetyl-L-cysteine]", "values": [{"measurement": "suppression of H2O2-induced caveolin-1 phosphorylation", "setting": "[1]; CRT-MG cells", "value": "considerably suppressed H2O2-induced caveolin-1 phosphorylation in a dose-dependent manner; also recorded: modest compared to catalase"}]}
{"compound": "spot 2: residues 9–21 of caveolin-1 (spot 2), which included Tyr 14 (Ac-SEGHL[pY]TVPIREQ)", "values": [{"measurement": "binding of rGST-SHP-2 to caveolin-1 peptide spots", "setting": "[2]", "value": "only 1 spot of bound recombinant SHP-2 was detected"}, {"measurement": "binding of rGST-CSK to caveolin-1 peptide spots", "setting": "[3]", "value": "strong binding"}]}
{"compound": "OO", "note": "[H2O2, hydrogen peroxide]", "values": [{"measurement": "level of Tyr-phosphorylated caveolin-1, dose dependence", "setting": "[1]; CRT-MG cells, H2O2 0–5 mM, 10 min, normalized to tubulin, mean ± SD from three experiments", "value": "dose-dependent increase in the level of Tyr-phosphorylated caveolin-1 up to a concentration of 5 mM"}, {"measurement": "phosphorylation of caveolin-1 at Tyr 14", "setting": "[1]; HUVECs (positive control), 1 mM H2O2, 10 min, immunoblot", "value": "induced the phosphorylation of caveolin-1"}, {"measurement": "direct interaction between SHP-2 and caveolin-1", "setting": "[4]", "value": "a direct interaction between SHP-2 and caveolin-1 (indicated by red dots) occurred"}, {"measurement": "phosphorylation of caveolin-1 at Tyr 14", "setting": "[5]", "value": "induced the phosphorylation of caveolin-1; also recorded: strongly induced phosphorylation of caveolin-1 at Tyr 14"}, {"measurement": "phosphorylation of ERK 1/2, H2O2-induced", "setting": "[6]", "value": "leads to phosphorylation of ERK 1/2 and FAK"}, {"measurement": "phosphorylation of FAK, H2O2-induced", "setting": "[7]", "value": "leads to phosphorylation of ERK 1/2 and FAK"}, {"measurement": "complex formation between caveolin-1 and CSK", "setting": "[8]", "value": "complex formation occurred between caveolin-1 and CSK"}, {"measurement": "phosphorylation of caveolin-1 at Tyr 14", "setting": "[9]", "value": "induces the phosphorylation of caveolin-1 at Tyr 14"}]}
{"compound": "catalase", "values": [{"measurement": "suppression of H2O2-induced caveolin-1 phosphorylation", "setting": "[1]; CRT-MG cells", "value": "considerably suppressed H2O2-induced caveolin-1 phosphorylation in a dose-dependent manner; also recorded: completely abrogates H2O2-induced caveolin-1 phosphorylation"}]}
